From ChEMBL document CHEMBL3217628, “Benzisothiazolones arrest the cell cycle at the G2/M phase and induce apoptosis in HeLa cells” (Medchemcomm, 2013)
Calls of active or inactive are those of the source. No cut-off for these calls is given here.

Tests used:
HeLa [1] = test: Cytotoxicity against human HeLa cells after 72 hrs by MTT assay; format: functional, cell-based
SiHa = test: Cytotoxicity against human SiHa cells after 72 hrs by MTT assay; format: functional, cell-based
SW480 = test: Cytotoxicity against human SW480 cells after 72 hrs by MTT assay; format: functional, cell-based; conditions: SW480, 72 h
[2] = Solubility of the compound in DMSO; format: physicochemical
HeLa [3] = test: Induction of apoptosis in human HeLa cells assessed as disruption of mitochondrial membrane potential at […] after 72 hrs using JC1 dye by fluorescence microscope analysis; format: functional, cell-based
HeLa [4] = test: Induction of apoptosis in human HeLa cells assessed as cleaved caspase-3 level at […] after 48 hrs by Western blot analysis; format: functional, cell-based
HeLa [5] = test: Induction of apoptosis in human HeLa cells assessed as disruption of mitochondrial membrane potential at 50 uM after 72 hrs using JC1 dye by fluorescence microscope analysis; format: functional, cell-based
HeLa [6] = test: Cell cycle arrest in human HeLa cells assessed as accumulation at G2/M phase at 50 uM after 48 hrs using propidium iodide staining by flow cytometry (reference value: 14.3%); format: functional
HeLa [7] = test: Cell cycle arrest in human HeLa cells assessed as apoptotic cells at 50 uM after 48 hrs using propidium iodide staining by flow cytometry (reference value: 7.3%); format: functional
HeLa [8] = test: Induction of apoptosis in human HeLa cells assessed as formation of DNA fragmentation at 50 uM after 72 hrs using ethidium bromide staining by 2% agarose gel electrophoresis assay; format: functional, cell-based

solubility [2]	SMILES	IC50 (HeLa [1]) [µM]	IC50 (SiHa) [µM]	IC50 (SW480) [µM]	further results
	C[C@H](c1ccccc1)n1sc2ccccc2c1=O	43.7	32.3	43.1	
	O=c1c2ccccc2sn1Cc1ccc2c(c1)OCO2	37.3	29.3	46.3	
soluble	COc1ccccc1-n1sc2ccccc2c1=O				
soluble	COc1ccc(-n2sc3ccccc3c2=O)cc1				
	C[C@@H](c1ccccc1)n1sc2ccccc2c1=O	30.9	35.9	41.8	
	CC(=O)O[C@H]1C(=O)[C@@]2(C)[C@H]([C@H](OC(=O)c3ccccc3)[C@]3(O)C[C@H](OC(=O)[C@H](O)[C@@H](NC(=O)c4ccccc4)c4ccccc4)C(C)=C1C3(C)C)[C@]1(OC(C)=O)CO[C@@H]1C[C@@H]2O				Activity (HeLa [3]): Active; Activity (HeLa [4]): Active
	CC(C)Cn1sc2ccccc2c1=O	31.8	38.1	47.8	
soluble	O=c1c2ccccc2sn1-c1ccccc1[N+](=O)[O-]				
soluble	O=c1c2ccccc2sn1-c1ccccc1				
	O=c1c2ccccc2sn1C1CCCCC1	24.8	48.3	48.8	Activity (HeLa [5]): Active; Activity (HeLa [6]): 26.6%; Activity (HeLa [7]): 23.4%; Activity (HeLa [8]): Active

SMILES	solubility [2]	IC50 (HeLa [1]) [µM]	IC50 (SiHa) [µM]	IC50 (SW480) [µM]	further results
O=C(c1ccccc1)c1cc(Cl)ccc1-n1sc2ccccc2c1=O	soluble				
Cc1ccc(-n2sc3ccccc3c2=O)cc1	soluble				
